Calls of active or inactive are those of the source.
Columns and labels:
[1] = target: Intestinal-type alkaline phosphatase (Homo sapiens, UniProt P09923); assay: activation of human intestinal alkaline phosphatase – biochemical, dose response (AID 488873); format: functional
[2] = target: Intestinal-type alkaline phosphatase (Mus musculus, UniProt P24822); assay: PubChem AID 488785; format: functional
[3] = target: T1, Alkaline phosphatase, tissue-nonspecific isozyme (Homo sapiens, UniProt P05186); assay: TNAP enzyme inhibition by screening hits, dose response, selectivity assay for mouse IAP inhibitor project, biochemical, human TNAP, uHTS hits (AID 488906); format: functional
T1 sequence (P05186 whole entry): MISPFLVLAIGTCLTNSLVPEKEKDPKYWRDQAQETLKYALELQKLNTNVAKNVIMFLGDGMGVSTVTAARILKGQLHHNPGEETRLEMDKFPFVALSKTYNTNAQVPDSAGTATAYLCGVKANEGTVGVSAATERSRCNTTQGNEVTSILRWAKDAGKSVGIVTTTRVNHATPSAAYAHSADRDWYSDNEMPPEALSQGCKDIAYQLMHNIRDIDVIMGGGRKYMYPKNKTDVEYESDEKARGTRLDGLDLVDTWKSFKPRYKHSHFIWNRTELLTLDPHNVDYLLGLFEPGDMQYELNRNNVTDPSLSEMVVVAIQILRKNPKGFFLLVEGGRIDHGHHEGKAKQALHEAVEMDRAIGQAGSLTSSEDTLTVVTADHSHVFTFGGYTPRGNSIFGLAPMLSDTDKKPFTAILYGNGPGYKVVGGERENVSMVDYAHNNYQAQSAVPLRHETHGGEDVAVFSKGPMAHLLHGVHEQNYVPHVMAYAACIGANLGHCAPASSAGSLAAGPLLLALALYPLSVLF

[4] = target: Dual specificity tyrosine-phosphorylation-regulated kinase 1A (Rattus norvegicus, UniProt Q63470); format: biochemical, Homo sapiens
[5] = target: Protein disulfide-isomerase (Homo sapiens, UniProt P07237); assay: PDI inhibitors, insulin aggregation turbidity, dose response, biochemical, absorbance, cherry-picked samples (AID 602350); format: functional
[6] = target: Hepatocyte nuclear factor 4-alpha (Homo sapiens, UniProt P41235); format: functional, cell-based;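 note: biochemical luminescence-based dose-response counterscreen measuring inhibition of HNF4 dimerization, run alongside a screen for blockers of ABHD5–perilipin-5 interaction; split luciferase complementation of HNF4 fusion proteins in cell lysate measuring dimerization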
Melanocortin receptor 4 = Melanocortin receptor 4 (Homo sapiens, UniProt P32245); format: functional, cell-based;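 note: Cell-based assay with luminescence read-out, confirmatory dose-response testing for agonist activity of biased ligands at MC4R; human U2OS cells with tagged receptor and beta-arrestin; potency of agonists that increase receptor coupling to beta-arrestin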
[7] = target: Benomyl/methotrexate resistance protein (Candida albicans, UniProt P28873); assay: CaMdr1 efflux pump inhibitor potency, dose response, singleplex, Cherry Pick1 hits (AID 588608); format: functional
[8] = inhibitors of intracellular T. cruzi replication, confirmation, NIH3T3 host cells, beta-gal luminescence (AID 2044); format: functional, cell-based;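 note: intracellular parasites grown in NIH/3T3 mouse fibroblasts as host cells; luminescent beta-galactosidase reporter signal from transgenic T. cruzi replicating inside host cells; inhibitors lower the luminescence signal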
[9] = cytotoxicity toward NIH3T3 fibroblasts, dose response, counter-screen, cell-based, ATP luminescence, mouse fibroblasts (AID 2010); format: functional;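 note: cells exposed to compound for about 90 hours before reading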
Protein Wnt-3a = Protein Wnt-3a (Mus musculus, UniProt P27467); assay: Wnt3a-driven reporter signaling inhibition, dose response, selectivity assay for Gli-SUFU antagonist project, Wnt-LIGHT cells, luminescence (AID 651570); format: functional; conditions: read-out: IC50_Mean;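 note: Wnt-LIGHT reporter cells stimulated with conditioned medium from Wnt3a-producing cells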
[10] = target: Melanin-concentrating hormone receptor 1 (Homo sapiens, UniProt Q99705); assay: Late-stage fluorescence-based counterscreen for antagonists of the G-protein coupled receptor 7 (GPR7): cell-based dose response assay to identify antagonists of the melanin-concentrating hormone receptor 1 (MCHR1) Set 6.; format: functional
[11] = target: Neuropeptides B/W receptor type 1 (Homo sapiens, UniProt P48145); assay: GPR7 antagonist potency, late-stage follow-up, cell-based, fluorescence, dose response, set 6 (AID 588583); format: functional
[12] = target: T2, Sentrin-specific protease 8 (Homo sapiens, UniProt Q96LD8); assay: SENP8 protease inhibitors, SAR follow-up, biochemical, luminescence (AID 504501); format: functional
T2 sequence (Q96LD8 whole entry): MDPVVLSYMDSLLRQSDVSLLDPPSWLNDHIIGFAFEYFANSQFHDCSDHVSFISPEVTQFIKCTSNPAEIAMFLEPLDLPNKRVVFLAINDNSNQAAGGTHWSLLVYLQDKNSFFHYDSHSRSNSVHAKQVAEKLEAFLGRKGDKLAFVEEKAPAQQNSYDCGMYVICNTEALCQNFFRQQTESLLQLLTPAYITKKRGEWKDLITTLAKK

Caspase-3 = target: T3, Caspase-3 (Homo sapiens, UniProt P42574); assay: SAR Analysis of small molecule inhibitors of Sentrin-specific proteases (SENPs) using a Caspase-3 Selectivity assay. [Related pubchem assays (depositor defined):AID2540, AID2599, AID434973, AID489001]; format: functional
T3 sequence (P42574 whole entry): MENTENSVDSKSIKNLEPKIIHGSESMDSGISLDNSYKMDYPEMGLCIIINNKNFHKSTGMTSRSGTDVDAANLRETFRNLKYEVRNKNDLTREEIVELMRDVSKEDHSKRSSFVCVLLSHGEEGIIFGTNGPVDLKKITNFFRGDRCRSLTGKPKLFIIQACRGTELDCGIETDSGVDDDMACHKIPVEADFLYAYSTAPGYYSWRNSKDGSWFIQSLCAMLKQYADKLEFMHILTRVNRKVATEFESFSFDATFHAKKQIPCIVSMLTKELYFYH

[13] = target: T4, Sentrin-specific protease 6 (Homo sapiens, UniProt Q9GZR1); assay: SAR Analysis of small molecule inhibitors of Sentrin-specific protease 6 (SENP6) using a Luminescent assay. [Related pubchem assays (depositor defined):AID2582, AID2599]; format: functional
T4 sequence (Q9GZR1 whole entry): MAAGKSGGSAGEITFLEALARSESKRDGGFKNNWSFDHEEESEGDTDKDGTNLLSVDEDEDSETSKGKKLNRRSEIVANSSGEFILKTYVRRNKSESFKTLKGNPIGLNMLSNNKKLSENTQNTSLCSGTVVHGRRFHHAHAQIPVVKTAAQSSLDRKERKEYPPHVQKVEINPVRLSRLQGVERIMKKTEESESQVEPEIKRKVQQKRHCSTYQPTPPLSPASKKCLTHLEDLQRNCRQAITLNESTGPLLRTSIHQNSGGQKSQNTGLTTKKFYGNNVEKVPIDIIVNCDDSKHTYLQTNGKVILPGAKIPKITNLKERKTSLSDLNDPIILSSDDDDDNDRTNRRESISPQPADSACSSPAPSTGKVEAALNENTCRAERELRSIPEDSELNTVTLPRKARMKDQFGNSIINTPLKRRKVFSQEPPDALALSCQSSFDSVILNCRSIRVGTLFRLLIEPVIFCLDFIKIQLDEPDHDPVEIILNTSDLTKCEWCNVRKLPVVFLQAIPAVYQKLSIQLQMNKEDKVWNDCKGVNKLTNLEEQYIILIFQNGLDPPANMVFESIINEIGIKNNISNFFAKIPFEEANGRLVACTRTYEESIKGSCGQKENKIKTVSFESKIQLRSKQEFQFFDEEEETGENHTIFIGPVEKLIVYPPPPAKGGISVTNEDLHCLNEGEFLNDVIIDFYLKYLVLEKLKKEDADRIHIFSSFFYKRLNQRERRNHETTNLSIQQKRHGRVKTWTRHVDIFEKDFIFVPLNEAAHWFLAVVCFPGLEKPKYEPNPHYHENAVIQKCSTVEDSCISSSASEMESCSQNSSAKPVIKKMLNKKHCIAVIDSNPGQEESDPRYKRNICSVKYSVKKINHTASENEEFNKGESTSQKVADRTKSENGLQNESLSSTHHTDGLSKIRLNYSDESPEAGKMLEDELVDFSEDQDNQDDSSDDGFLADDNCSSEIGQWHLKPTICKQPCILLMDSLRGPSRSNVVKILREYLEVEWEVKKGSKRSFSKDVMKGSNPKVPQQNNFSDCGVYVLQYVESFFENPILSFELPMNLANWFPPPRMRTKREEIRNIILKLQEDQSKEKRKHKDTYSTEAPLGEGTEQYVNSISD

[14] = target: T5, Sentrin-specific protease 7 (Homo sapiens, UniProt Q9BQF6); assay: SENP7 protease inhibitors, SAR follow-up, biochemical, luminescence (AID 504497); format: functional
T5 sequence (Q9BQF6 whole entry): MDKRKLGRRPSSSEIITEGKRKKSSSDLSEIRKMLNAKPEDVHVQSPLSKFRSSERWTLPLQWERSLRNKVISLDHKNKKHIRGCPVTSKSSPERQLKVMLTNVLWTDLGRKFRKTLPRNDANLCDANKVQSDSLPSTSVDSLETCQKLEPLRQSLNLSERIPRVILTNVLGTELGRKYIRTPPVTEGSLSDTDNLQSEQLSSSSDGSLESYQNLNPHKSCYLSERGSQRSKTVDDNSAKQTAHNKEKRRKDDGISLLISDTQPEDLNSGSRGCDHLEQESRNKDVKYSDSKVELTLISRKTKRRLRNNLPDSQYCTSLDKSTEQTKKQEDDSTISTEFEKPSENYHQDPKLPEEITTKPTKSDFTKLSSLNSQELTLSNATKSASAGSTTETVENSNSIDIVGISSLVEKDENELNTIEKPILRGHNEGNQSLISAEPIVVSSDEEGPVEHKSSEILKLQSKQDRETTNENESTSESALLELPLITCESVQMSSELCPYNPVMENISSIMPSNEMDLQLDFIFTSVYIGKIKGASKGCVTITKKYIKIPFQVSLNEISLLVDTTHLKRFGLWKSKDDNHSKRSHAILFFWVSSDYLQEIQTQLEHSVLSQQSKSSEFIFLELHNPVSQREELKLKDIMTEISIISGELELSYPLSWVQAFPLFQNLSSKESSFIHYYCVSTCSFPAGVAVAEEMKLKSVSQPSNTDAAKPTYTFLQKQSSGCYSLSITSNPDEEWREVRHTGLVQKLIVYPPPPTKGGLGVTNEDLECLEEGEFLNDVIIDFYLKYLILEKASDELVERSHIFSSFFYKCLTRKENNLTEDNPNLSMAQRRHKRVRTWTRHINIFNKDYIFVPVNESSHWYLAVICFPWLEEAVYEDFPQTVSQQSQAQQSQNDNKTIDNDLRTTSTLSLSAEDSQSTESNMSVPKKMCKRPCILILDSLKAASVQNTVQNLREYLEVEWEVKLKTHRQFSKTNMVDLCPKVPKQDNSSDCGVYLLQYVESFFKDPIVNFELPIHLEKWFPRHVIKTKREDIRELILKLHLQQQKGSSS

[15] = target: Alkaline phosphatase, placental type (Homo sapiens, UniProt P05187); assay: PLAP enzyme inhibitors, confirmation, biochemical, luminescence (AID 1512); format: functional
[16] = ARNT/TACC3 interaction disruptors, potency, confirmation, biochemical, AlphaScreen, cherry-picked samples (AID 651703); format: functional, Homo sapiens;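 note: His-tagged ARNT PAS-B domain paired with GST-TACC3 E629A dimer coactivator fragment; potency of inhibitors that break up the complex and lower AlphaScreen signal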
[17] = target: T6, Heat shock factor protein 1 (Mus musculus, UniProt P38532); assay: inhibition of MG132-induced HSE-luciferase signal, confirmation, cell-based, NIH3T3, luminescence, dose retest (AID 2382); format: functional;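 note: NIH3T3 fibroblasts with HSF1-driven luciferase reporter stressed by proteasome inhibitor MG132; luminescence from HSF1-driven luciferase expression after 8 hours of MG132 stress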
T6 sequence (P38532 whole entry): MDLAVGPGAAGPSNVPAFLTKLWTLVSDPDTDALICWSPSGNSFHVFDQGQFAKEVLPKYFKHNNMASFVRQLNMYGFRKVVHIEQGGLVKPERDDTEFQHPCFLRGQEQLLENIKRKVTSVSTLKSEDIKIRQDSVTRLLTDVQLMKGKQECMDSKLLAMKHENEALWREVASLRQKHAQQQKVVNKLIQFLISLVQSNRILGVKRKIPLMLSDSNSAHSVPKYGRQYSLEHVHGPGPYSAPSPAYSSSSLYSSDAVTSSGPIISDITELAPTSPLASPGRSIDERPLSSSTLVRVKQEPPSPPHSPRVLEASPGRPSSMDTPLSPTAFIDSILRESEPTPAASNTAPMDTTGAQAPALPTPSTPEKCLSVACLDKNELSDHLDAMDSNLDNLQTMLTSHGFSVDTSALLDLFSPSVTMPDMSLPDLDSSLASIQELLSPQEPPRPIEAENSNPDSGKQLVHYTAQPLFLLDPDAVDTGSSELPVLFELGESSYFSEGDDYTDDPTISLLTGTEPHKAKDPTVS

[18] = target: Mitochondrial peptide methionine sulfoxide reductase (Bos taurus, UniProt P54149); format: functional;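 note: absorbance read-out, biochemical high-throughput dose-response screen for MsrA inhibitors, confirmatory; recombinant bovine MsrA coupled to E. coli TrxB with NADPH and selenocystamine; potency is for inhibitors of MsrA activity on DMSO substrate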
Sequence of Mitochondrial peptide methionine sulfoxide reductase (P54149 whole entry): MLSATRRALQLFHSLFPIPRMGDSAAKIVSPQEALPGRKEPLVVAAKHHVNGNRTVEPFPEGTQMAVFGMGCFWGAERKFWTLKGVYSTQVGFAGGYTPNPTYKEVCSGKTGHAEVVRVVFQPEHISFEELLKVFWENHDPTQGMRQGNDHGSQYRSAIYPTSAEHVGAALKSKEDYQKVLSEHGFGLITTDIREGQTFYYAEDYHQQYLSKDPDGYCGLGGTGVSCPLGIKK

Sequence of Protein disulfide-isomerase (P07237 whole entry, the tested form may be a part): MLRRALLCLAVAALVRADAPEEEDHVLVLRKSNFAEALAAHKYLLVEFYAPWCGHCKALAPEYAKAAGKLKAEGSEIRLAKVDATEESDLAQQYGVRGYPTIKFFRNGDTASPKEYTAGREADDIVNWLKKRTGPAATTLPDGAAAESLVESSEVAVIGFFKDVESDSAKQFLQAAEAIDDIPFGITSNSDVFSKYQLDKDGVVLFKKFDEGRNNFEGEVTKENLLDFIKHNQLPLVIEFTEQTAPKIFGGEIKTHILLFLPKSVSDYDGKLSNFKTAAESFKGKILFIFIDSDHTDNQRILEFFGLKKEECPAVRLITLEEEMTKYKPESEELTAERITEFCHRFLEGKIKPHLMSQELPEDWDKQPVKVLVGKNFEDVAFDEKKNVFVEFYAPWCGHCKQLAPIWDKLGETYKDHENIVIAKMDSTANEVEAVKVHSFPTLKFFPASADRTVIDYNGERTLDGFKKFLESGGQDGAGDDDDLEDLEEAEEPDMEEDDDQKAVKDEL
Sequence of Neuropeptides B/W receptor type 1 (P48145 whole entry): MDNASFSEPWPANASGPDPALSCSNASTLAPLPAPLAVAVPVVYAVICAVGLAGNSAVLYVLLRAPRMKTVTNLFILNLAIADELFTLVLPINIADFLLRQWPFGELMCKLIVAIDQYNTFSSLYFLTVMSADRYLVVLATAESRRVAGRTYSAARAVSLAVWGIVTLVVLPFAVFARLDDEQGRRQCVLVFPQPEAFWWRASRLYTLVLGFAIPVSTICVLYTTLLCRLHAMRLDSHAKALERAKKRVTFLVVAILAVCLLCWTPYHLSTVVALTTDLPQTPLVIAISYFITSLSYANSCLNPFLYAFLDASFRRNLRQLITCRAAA
Sequence of Alkaline phosphatase, placental type (P05187 whole entry, the tested form may be a part): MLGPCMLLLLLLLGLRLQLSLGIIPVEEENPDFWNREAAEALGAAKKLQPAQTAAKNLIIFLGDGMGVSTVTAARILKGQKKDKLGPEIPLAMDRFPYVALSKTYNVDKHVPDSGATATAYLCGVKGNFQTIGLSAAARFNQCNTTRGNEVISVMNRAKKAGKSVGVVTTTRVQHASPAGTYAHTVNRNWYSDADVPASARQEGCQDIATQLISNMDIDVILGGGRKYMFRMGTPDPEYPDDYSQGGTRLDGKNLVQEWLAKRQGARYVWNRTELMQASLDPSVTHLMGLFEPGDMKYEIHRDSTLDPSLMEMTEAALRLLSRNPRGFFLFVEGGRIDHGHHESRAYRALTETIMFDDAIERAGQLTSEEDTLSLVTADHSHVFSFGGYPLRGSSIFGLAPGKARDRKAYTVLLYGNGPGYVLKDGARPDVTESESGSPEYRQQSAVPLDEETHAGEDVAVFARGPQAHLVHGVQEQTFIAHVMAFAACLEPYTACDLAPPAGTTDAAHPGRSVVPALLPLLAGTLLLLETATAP
Sequence of Melanin-concentrating hormone receptor 1 (Q99705 whole entry): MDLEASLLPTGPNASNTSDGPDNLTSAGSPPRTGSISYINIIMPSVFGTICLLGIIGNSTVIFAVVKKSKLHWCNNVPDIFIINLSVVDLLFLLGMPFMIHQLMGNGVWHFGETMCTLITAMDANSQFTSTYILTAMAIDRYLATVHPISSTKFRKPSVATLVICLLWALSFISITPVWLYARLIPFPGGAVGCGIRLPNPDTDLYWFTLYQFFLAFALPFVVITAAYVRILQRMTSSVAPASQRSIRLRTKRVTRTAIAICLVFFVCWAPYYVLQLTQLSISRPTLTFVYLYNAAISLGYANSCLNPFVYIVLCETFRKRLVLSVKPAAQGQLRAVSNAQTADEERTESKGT
Sequence of Intestinal-type alkaline phosphatase (Mus musculus, UniProt P24822) (P24822 whole entry): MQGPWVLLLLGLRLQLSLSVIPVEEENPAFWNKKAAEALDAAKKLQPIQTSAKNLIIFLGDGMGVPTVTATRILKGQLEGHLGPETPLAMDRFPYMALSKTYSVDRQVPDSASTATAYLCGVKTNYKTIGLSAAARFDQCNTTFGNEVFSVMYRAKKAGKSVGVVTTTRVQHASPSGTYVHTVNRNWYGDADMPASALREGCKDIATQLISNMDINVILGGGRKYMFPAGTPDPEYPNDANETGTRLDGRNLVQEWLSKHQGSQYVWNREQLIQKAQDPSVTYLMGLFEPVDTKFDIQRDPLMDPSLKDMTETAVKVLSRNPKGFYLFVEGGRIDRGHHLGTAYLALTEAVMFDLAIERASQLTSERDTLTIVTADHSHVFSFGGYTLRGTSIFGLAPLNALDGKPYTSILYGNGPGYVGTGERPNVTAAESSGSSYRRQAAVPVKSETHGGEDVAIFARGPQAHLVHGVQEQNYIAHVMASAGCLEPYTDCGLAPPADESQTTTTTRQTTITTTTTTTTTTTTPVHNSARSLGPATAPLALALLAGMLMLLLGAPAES
Sequence of Intestinal-type alkaline phosphatase (Homo sapiens, UniProt P09923) (P09923 whole entry): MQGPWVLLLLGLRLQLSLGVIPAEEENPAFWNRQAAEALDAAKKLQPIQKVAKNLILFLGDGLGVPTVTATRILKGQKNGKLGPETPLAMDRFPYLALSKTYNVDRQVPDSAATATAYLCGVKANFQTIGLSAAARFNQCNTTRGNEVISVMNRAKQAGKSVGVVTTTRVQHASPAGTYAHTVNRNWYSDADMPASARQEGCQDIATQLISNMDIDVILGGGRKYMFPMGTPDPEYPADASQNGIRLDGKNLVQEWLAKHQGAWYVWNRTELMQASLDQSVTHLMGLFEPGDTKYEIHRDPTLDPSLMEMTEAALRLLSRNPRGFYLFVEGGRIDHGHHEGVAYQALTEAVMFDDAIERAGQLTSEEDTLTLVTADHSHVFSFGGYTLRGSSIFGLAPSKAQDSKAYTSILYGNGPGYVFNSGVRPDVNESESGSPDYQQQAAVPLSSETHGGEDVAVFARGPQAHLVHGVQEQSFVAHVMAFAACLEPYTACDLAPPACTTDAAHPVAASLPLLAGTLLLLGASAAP
Sequence of Melanocortin receptor 4 (P32245 whole entry): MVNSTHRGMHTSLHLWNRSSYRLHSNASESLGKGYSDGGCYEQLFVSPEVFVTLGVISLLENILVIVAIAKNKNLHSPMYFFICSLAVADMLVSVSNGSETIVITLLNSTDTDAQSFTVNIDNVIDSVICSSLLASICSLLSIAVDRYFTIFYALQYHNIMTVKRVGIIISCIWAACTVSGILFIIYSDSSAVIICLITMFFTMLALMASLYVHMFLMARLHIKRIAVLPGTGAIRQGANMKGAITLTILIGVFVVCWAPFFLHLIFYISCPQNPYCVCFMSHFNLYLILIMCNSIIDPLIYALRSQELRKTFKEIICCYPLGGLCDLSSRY
Sequence of Benomyl/methotrexate resistance protein (P28873 whole entry): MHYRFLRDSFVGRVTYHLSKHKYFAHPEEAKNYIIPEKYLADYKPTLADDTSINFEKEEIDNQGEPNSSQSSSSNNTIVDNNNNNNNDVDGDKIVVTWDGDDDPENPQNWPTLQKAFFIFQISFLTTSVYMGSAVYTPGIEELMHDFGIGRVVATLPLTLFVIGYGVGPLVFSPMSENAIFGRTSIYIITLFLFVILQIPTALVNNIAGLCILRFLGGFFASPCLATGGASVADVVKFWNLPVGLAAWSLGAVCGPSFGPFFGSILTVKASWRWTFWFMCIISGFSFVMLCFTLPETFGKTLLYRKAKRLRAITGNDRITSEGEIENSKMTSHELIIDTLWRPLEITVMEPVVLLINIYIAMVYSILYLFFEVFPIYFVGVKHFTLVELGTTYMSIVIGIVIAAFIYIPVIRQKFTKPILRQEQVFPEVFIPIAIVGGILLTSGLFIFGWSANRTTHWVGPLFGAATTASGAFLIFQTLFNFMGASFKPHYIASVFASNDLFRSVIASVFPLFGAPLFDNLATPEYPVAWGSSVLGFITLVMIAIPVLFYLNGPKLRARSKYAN
Sequence of Protein Wnt-3a (P27467 whole entry): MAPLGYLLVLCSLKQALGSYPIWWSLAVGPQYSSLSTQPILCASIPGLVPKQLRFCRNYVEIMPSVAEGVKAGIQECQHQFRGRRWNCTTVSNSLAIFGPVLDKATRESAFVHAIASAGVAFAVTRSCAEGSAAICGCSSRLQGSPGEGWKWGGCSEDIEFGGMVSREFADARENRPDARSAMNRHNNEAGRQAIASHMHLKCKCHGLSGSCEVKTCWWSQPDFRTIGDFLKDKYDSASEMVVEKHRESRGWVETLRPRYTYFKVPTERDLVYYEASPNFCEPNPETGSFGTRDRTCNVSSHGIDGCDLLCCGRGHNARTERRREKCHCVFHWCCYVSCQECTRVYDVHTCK
Sequence of Hepatocyte nuclear factor 4-alpha (P41235 whole entry, the tested form may be a part): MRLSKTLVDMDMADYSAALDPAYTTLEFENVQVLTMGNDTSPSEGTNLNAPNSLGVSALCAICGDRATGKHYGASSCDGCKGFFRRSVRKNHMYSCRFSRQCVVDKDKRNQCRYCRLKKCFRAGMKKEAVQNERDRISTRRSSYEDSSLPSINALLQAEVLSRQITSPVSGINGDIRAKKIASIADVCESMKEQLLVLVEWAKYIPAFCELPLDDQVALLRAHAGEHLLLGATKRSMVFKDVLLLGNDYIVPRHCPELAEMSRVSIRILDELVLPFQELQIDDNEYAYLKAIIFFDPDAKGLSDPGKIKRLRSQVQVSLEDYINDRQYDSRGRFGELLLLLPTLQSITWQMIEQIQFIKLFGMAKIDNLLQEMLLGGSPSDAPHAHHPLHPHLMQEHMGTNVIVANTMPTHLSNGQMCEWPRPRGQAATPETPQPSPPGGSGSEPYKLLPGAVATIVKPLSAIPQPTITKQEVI

## C[C@@H]1O[C@@H](O[C@H]2[C@H](O)[C@@H](O)[C@H](Oc3c(-c4ccc(O)c(O)c4)oc4cc(O)cc(O)c4c3=O)O[C@@H]2CO)[C@H](O)[C@H](O)[C@H]1O
[1]
  EC50: 22 µM (active)
[2]
  IC50: 5.66 µM (active)
[3]
  IC50: 10.8 µM (active)
[4]
  AC50: 11.4 µM (active)
[5]
  AC50: 4.28 µM (active)

## O=C(Nc1ccc2c(c1)OCCO2)C(c1ccccc1F)n1c(=O)c(-c2ccco2)nc2ccccc21 (stereo not drawn)
[6]
  IC50: 16.2 µM (inactive)

## CCOC(=O)c1ccc(-c2ccc(/C=C(\C#N)C(=O)NCc3cccs3)o2)cc1
Melanocortin receptor 4
  EC50: > 89.2 µM (inactive)

## COc1ccccc1-c1nc(C(N)=O)c2[nH]c(=O)n(-c3cccc(C)c3)c2n1
[7]
  EC50: 17.2 µM (active)

## c1ccc(-c2cn3c([n+]2-c2ccccc2)SCC3)cc1
[8]
  EC50: 1.92 µM (active)
[9]
  EC50: > 60 µM (not active)
Protein Wnt-3a
  IC50: 37.6 µM (inactive)

## N#CC(C#N)c1cnn(Cc2cccc3ccccc23)c(=O)c1Cl
[10]
  IC50: > 20 µM (inactive)
[11]
  IC50: > 20 µM (inactive)

## CCOC(=O)c1c(-c2ccc(-c3ccccc3)cc2)csc1NC(=O)c1ccc(C)cc1
[12]
  IC50: > 99 µM (inactive)
Caspase-3
  IC50: > 99 µM (inactive)
[13]
  IC50: > 99 µM (inactive)
[14]
  IC50: > 99 µM (inactive)

## COc1ccc(-c2cc(NCc3ccccn3)n3ncnc3n2)cc1
[15]
  IC50: > 100 µM (inactive)
[16]
  AC50: 91.5 µM (active)

## CCCCc1[nH]nc2c1/C(=N/OCC)CC(C)(C)C2
[17]
  EC50: > 195 µM (not active)
[18]
  IC50: 155 µM (inactive)

## CCC(C#N)c1c(Cl)cnn(Cc2cccc3ccccc23)c1=O (stereo not drawn)
[10]
  IC50: 2.17 µM (active)
[11]
  IC50: 2.17 µM (active)

## C[C@@H]1O[C@@H](Oc2c(-c3ccc(O)c(O)c3)oc3cc(O)cc(O)c3c2=O)[C@H](O)[C@H](O)[C@H]1O [QUERCITRIN]
[5]
  AC50: 2.48 µM (active)

## Oc1ccccc1-c1noc(-c2ccccc2O)n1
[12]
  IC50: 3.6 µM (active)
Caspase-3
  IC50: 0.97 µM (active)
[13]
  IC50: 3.5 µM (active)
[14]
  IC50: 2 µM (active)

— ChEMBL document CHEMBL1201862, “PubChem BioAssay data set” (2004)
